Where a name gives a salt, the structure may show the parent alone. Read-outs that look alike come from different tables or passages of the source.
Target: T1, Flag/GST-tagged recombinant human B-Raf (Homo sapiens, UniProt P15056)
T1 construct: Flag; GST; made in house; host or cells: Sf9 insect cells (B-Raf); E. coli (MEK1-GST)
Test: B-Raf kinase assay (phosphorylation of GST-MEK1, phospho-MEK1 antibody/Europium detection)
Format: biochemical
Details: B-Raf IC50 Data for compounds of Formula A
Description: B-Raf1 Kinase Assay Procedure: B-Raf-1 is used to phosphorylate GST-MEK1.
• 1. Assay Dilution Buffer (ADB): 20 mM MOPS, pH 7.2, 25 mM β-glycerol phosphate, 5 mM EGTA, 1 mM sodium orthovanadate, 1 mM dithiothreitol, 0.01% Triton X-100. • 2. Magnesium/ATP Cocktail: ADB solution (minus Triton X-100) plus 200 μM cold ATP and 40 mM magnesium chloride. • 4. Active Kinase: Active B-Raf: Used at 0.2 nM per assay point. • 5. […] TBST—Tris (50 mM, pH 7.5), NaCl (150 mM), Tween-20 (0.05%) • 7. Anti-GST Ab (GE) • 8. Anti pMEK Ab (Upstate) • 9. Anti-rabbit Ab/Europium conjugate (Wallac).
B-Raf Assay Procedure: • 1. Added 25 μL of ADB containing B-Raf and Mek per assay (i.e. per well of a 96 well plate) • 2. Added 25 μL of 0.2 mM ATP and 40 mM magnesium chloride in Magnesuium/ATP Cocktail. • 3. Incubated for 45 minutes at RT with occasional shaking. • 4. Transferred this mixture to an anti-GST Ab coated 96 well plate (Nunc Immunosorb plates coated o/n with a-GST. Plate freshly washed 3×with TBS-T before use. • 5. Incubated o/n at […] in cold room. • 6. Washed 3× with TBST, ed Anti-Phospho MEK1 (1:1000, dilution depended upon lot) • 7. Incubated for 60 minutes at RT in a shaking incubator • 8. Washed 3× with TBST, add Anti-rabbit Ab/Europium conjugate (Wallac) (1:500, dilution depended upon lot) • 9. Incubated for 60 minutes at RT on a platform shaker. • 10. Washed plate 3× with TBS-T • 11. Added 100 μL of Wallac Delfia Enhancement Solution and agitated for 10 minutes. • 12. Read plates in Wallac Victor model Plate Reader. • 13.
The % inhibition was determined for each compound concentration.

T1 sequence (P15056 whole entry): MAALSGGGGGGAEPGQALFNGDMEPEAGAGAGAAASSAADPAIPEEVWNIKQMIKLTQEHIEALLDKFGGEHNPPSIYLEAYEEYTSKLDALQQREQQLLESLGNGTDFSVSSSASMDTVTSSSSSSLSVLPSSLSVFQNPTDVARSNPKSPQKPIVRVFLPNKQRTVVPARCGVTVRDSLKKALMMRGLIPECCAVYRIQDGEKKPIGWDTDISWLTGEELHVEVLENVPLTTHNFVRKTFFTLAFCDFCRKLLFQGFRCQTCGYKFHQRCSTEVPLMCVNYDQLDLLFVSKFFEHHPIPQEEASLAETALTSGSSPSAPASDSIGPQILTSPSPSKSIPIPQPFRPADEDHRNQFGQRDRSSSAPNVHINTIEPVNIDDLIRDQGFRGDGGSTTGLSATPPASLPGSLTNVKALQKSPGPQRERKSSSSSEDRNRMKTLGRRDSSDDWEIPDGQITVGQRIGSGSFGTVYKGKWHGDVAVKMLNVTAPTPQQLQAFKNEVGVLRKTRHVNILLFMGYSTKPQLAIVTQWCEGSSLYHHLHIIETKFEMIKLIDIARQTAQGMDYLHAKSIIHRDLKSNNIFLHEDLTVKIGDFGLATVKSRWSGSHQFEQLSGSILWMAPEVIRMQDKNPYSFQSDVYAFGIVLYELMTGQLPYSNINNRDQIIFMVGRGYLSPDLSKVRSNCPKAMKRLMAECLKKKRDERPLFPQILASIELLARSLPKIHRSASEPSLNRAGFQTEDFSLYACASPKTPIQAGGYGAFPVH

Compound | IC50 (read-out: Mean IC50) [µM] | IC50 (Mean IC50 (uM)) [µM]
COc1cc(-c2c(-c3ccncc3)nn3c(-c4ccc(F)cc4N4C[C@@H]5C[C@H]4CN5C(=O)OC(C)(C)C)ccnc23)ccc1Cl [Example 48, (1S,4S)-tert-Butyl 5-(2-(3-(4-chloro-3-methoxyphenyl)-2-(pyridin-4-yl)pyrazolo[1,5-a]pyrimidin-7-yl)-5-fluorophenyl)-2,5-diazabicyclo[2.2.1]-heptane-2-carboxylate] | > 1 | 
COc1cc(-c2c(-c3ccncc3)nn3c(-c4ccc(F)cc4N4C[C@@H]5C[C@H]4CN5)ccnc23)ccc1Cl [Example 49, 7-(2-((1S,4S)-2,5-Diazabicyclo[2.2.1]heptan-2-yl)-4-fluorophenyl)-3-(4-chloro-3-methoxyphenyl)-2-(pyridin-4-yl)pyrazolo[1,5-a]pyrimidine] | 0.255 | 
COc1cc(-c2c(-c3ccncc3)nn3c(-c4ccc(F)cc4N4C[C@@H]5C[C@H]4CN5C)ccnc23)ccc1Cl [Example 50, 3-(4-Chloro-3-methoxyphenyl)-7-(4-fluoro-2-((1S,4S)-5-methyl-2,5-diazabicyclo[2.2.1]heptan-2-yl)phenyl)-2-(pyridin-4-yl)pyrazolo[1,5-a]pyrimidine] | > 1 | 
c1cc(-c2c(-c3ccncc3)nn3c(-c4ccc(N5C[C@@H]6C[C@H]5CN6)cc4)ccnc23)c2cn[nH]c2c1 [Example 51, 7-(4-((1S,4S)-2,5-Diazabicyclo[2.2.1]heptan-2-yl)phenyl)-3-(1H-indazol-4-yl)-(pyridin-4-yl)pyrazolo[1,5-a]pyrimidine] | 0.0008 | 
Fc1cc(N2C[C@@H]3C[C@H]2CN3)ccc1-c1ccnc2c(-c3cccc4[nH]ncc34)c(-c3ccncc3)nn12 [Example 52, 7-(4-((1S,4S)-2,5-Diazabicyclo[2.2.1]heptan-2-yl)-2-fluorophenyl)-3-(1H-indazol-4-yl)-2-(pyridin-4-yl)pyrazolo[1,5-a]pyrimidine] | < 0.0003 | 
CN1C[C@@H]2C[C@H]1CN2c1ccc(-c2ccnc3c(-c4cccc5[nH]ncc45)c(-c4ccncc4)nn23)c(F)c1 [Example 53, 7-(2-Fluoro-4-((1S,4S)-5-methyl-2,5-diazabicyclo[2.2.1]heptan-2-yl)phenyl)-3-(1H-indazol-4-yl)-2-(pyridin-4-yl)pyrazolo[1,5-a]pyrimidine] | < 0.0003 | 
CN1C[C@@H]2C[C@H]1CN2c1ccc(-c2ccnc3c(-c4ccc(F)c(O)c4)c(-c4ccncc4)nn23)cc1 [Example 54, 2-fluoro-5-(7-(4-((1S,4S)-5-methyl-2,5-diazabicyclo[2.2.1]heptan-2-yl)phenyl)-2-(pyridin-4-yl)pyrazolo[1,5-a]pyrimidin-3-yl)phenol] | 0.15 | 
Cc1cc(N2C[C@@H]3C[C@H]2CN3C)ccc1-c1ccnc2c(-c3ccc(F)c(O)c3)c(-c3ccncc3)nn12 [Example 56, 2-Fluoro-5-(7-(2-methyl-4-((1S,4S)-5-methyl-2,5-diazabicyclo[2.2.1]heptan-2-yl)phenyl)-2-(pyridin-4-yl)pyrazolo[1,5-a]pyrimidin-3-yl)phenol] | < 0.0003 | 
Cc1cc(N2C[C@@H]3C[C@H]2CN3C)ccc1-c1ccnc2c(-c3cccc(O)c3)c(-c3ccncc3)nn12 [Example 58, 3-(7-(2-Methyl-4-((1S,4S)-5-methyl-2,5-diazabicyclo[2.2.1]heptan-2-yl)phenyl)-2-(pyridin-4-yl)pyrazolo[1,5-a]pyrimidin-3-yl)phenol] | < 0.0003 | 
Oc1cccc(-c2c(-c3ccncc3)nn3c(-c4ccc(N5C[C@@H]6C[C@H]5CN6)cc4Cl)ccnc23)c1 [Example 59, 3-(7-(4-((1S,4S)-2,5-Diazabicyclo[2.2.1]heptan-2-yl)-2-chlorophenyl)-2-(pyridin-4-yl)pyrazolo[1,5-a]pyrimidin-3-yl)phenol] | < 0.0003 | 
CN1C[C@@H]2C[C@H]1CN2c1ccc(-c2ccnc3c(-c4cccc(O)c4)c(-c4ccncc4)nn23)c(Cl)c1 [Example 60, 3-(7-(2-Chloro-4-((1S,4S)-5-methyl-2,5-diazabicyclo[2.2.1]heptan-2-yl)phenyl)-2-(pyridin-4-yl)pyrazolo[1,5-a]pyrimidin-3-yl)phenol] | < 0.0003 | 
Clc1cc(N2C[C@@H]3C[C@H]2CN3)ccc1-c1ccnc2c(-c3cccc4[nH]ncc34)c(-c3ccncc3)nn12 [Example 61, 7-(4-((1S,4S)-2,5-Diazabicyclo[2.2.1]heptan-2-yl)-2-chlorophenyl)-3-(1H-indazol-4-yl)-2-(pyridin-4-yl)pyrazolo[1,5-a]pyrimidine] | < 0.0003 | 
CN1C[C@@H]2C[C@H]1CN2c1ccc(-c2ccnc3c(-c4cccc5[nH]ncc45)c(-c4ccncc4)nn23)c(Cl)c1 [Example 62, 7-(2-Chloro-4-((1S,4S)-5-methyl-2,5-diazabicyclo[2.2.1]heptan-2-yl)phenyl)-3-(1H-indazol-4-yl)-2-(pyridin-4-yl)pyrazolo[1,5-a]pyrimidine] | < 0.0003 | 
CCN1C2CCC1CC(c1ccnc3c(-c4ccc(F)c(O)c4)c(-c4ccncc4)nn13)C2 (stereo not shown) [Example 64, 5-(7-(8-Ethyl-8-azabicyclo[3.2.1]octan-3-yl)-2-(pyridin-4-yl)pyrazolo[1,5-a]pyrimidin-3-yl)-2-fluorophenol] | 0.003 | 
CCOC(=O)N1C2CCC1CC(c1ccnc3c(-c4cccc(F)c4F)c(-c4ccncc4)nn13)C2 (stereo not shown) [Example 65, Ethyl 3-(3-(2,3-difluorophenyl)-2-(pyridin-4-yl)pyrazolo[1,5-a]pyrimidin-7-yl)-8-azabicyclo[3.2.1]octane-8-carboxylate] | 0.302 | 
CCOC(=O)N1C2CCC1CC(c1ccnc3c(-c4cccc(NS(C)(=O)=O)c4)c(-c4ccncc4)nn13)C2 (stereo not shown) [Example 66, Ethyl 3-(3-(3-(methylsulfonamido)phenyl)-2-(pyridin-4-yl)pyrazolo[1,5-a]pyrimidin-7-yl)-8-azabicyclo[3.2.1]octane-8-carboxylate] | 0.329 | 
CCN1C2CCC1CC(c1ccnc3c(-c4ccc(NC(=O)OC)cc4)c(-c4ccncc4)nn13)C2 (stereo not shown) [Example 67, Methyl 4-(7-(8-ethyl-8-azabicyclo[3.2.1]octan-3-yl)-2-(pyridin-4-yl)pyrazolo[1,5-a]pyrimidin-3-yl)phenylcarbamate] | > 1 | 
CCN1C2CCC1CC(c1ccnc3c(-c4ccc(C#N)c(O)c4)c(-c4ccncc4)nn13)C2 (stereo not shown) [Example 68, 4-(7-(8-Ethyl-8-azabicyclo[3.2.1]octan-3-yl)-2-(pyridin-4-yl)pyrazolo[1,5-a]pyrimidin-3-yl)-2-hydroxybenzonitrile] | 0.058 | 
CCN1C2CCC1CC(c1ccnc3c(-c4ccc(NC=O)c(O)c4)c(-c4ccncc4)nn13)C2 (stereo not shown) [Example 72a, N-(4-(7-(8-Ethyl-8-azabicyclo[3.2.1]octan-3-yl)-2-(pyridin-4-yl)pyrazolo[1,5-a]pyrimidin-3-yl)-2-hydroxyphenyl)formamide] | 0.566 | 
CCN1C2CCC1CC(c1ccnc3c(-c4ccc(NC=O)c(OC)c4)c(-c4ccncc4)nn13)C2 (stereo not shown) [Example 72b, N-(4-(7-(8-ethyl-8-azabicyclo[3.2.1]octan-3-yl)-2-(pyridin-4-yl)pyrazolo[1,5-a]pyrimidin-3-yl)-2-methoxyphenyl)formamide] | 0.417 | 
CCOC(=O)N1C2CCC1CC(c1ccnc3c(-c4cccc5[nH]ncc45)c(-c4ccncc4)nn13)C2 (stereo not shown) [Example 73, Ethyl 3-[3-(1H-indazol-4-yl)-2-pyridin-4-ylpyrazolo[1,5-a]pyrimidin-7-yl]-8-azabicyclo[3.2.1]octane-8-carboxylate] | 0.002 | 
CCOC(=O)N1C2CCC1CC(c1ccnc3c(-c4ccc(Cl)c5[nH]ncc45)c(-c4ccncc4)nn13)C2 (stereo not shown) [Example 75, Ethyl 3-[3-(7-chloro-1H-indazol-4-yl)-2-pyridin-4-ylpyrazolo[1,5-a]pyrimidin-7-yl]-8-azabicyclo[3.2.1]octane-8-carboxylate] |  | 0.0003
CCOC(=O)N1C2CCC1CC(c1ccnc3c(-c4ccc(C(F)(F)F)c5[nH]ncc45)c(-c4ccncc4)nn13)C2 (stereo not shown) [Example 76, Ethyl 3-{2-pyridin-4-yl-3-[7-(trifluoromethyl)-1H-indazol-4-yl]pyrazolo[1,5-a]pyrimidin-7-yl}-8-azabicyclo[3.2.1]octane-8-carboxylate] |  | 0.004
CCN1C2CCC1CC(c1ccnc3c(-c4ccc(C)c5[nH]ncc45)c(-c4ccncc4)nn13)C2 (stereo not shown) [Example 77, 7-(8-ethyl-8-azabicyclo[3.2.1]oct-3-yl)-3-(7-methyl-1H-indazol-4-yl)-2-pyridin-4-ylpyrazolo[1,5-a]pyrimidine, trifluoroacetate salt] | 0.017 | 
CCOC(=O)N1C2CCC1CC(c1ccnc3c(-c4ccc(C)c5[nH]ncc45)c(-c4ccncc4)nn13)C2 (stereo not shown) [Example 78, Ethyl 3-[3-(7-Methyl-1H-indazol-4-yl)-2-pyridin-4-ylpyrazolo[1,5-a]pyrimidin-7-yl]-8-azabicyclo[3.2.1]octane-8-carboxylate, trifuoroacetate salt] | 0.0007 | 

Source: patent publication US20100029657A1, “Bridged, Bicyclic Heterocyclic or Spiro Bicyclic Heterocyclic Derivatives of Pyrazolo[1, 5-A]Pyrimidines, Methods for Preparation and Uses Thereof” (Wyeth, priority 2008, published 2010)
